Data: US20220265818A1, “CHIMERIC ANTIGENS FOR TREATING VIRAL INFECTION” (AKSHAYA BIO INC., priority 2019, published 2022)

Tested on: HBV
Assay: Liver HBV DNA in HBV transgenic mice
Conditions: ADV at 5 mg/kg/day, oral gavage

CC(C)(C)C(=O)OCOP(=O)(COCCn1cnc2c(N)ncnc21)OCOC(=O)C(C)(C)C [ADV, Adefovir dipivoxil] was tested, and the “liver HBV DNA” value was “reduced liver HBV DNA”.
